According to US20250242031A1, “POLYMER SALTS FOR IMPROVED DRUG DELIVERY FROM AMORPHOUS SOLID DISPERSIONS” (Purdue Research Foundation, priority 2022, published 2025):
Converted amounts (≈) assume the structure as drawn.

Assay: Drug amorphous solubility
Type: physicochemical
Settings: aqueous buffer; miconazole, dissolution medium pH 6.8

Q: With `Clc1ccc(COC(Cn2ccnc2)c2ccc(Cl)cc2Cl)c(Cl)c1` (stereo not shown) [miconazole] as the molecule, how does the solubility read?
A: ~5 µg/mL (≈ 12 µM)
